Test [1] deals with T1, Recombinant human prolyl oligopeptidase (Homo sapiens, UniProt P48147).
T1 construct: made in house; host or cells: E. coli
T1 sequence (P48147 1-710): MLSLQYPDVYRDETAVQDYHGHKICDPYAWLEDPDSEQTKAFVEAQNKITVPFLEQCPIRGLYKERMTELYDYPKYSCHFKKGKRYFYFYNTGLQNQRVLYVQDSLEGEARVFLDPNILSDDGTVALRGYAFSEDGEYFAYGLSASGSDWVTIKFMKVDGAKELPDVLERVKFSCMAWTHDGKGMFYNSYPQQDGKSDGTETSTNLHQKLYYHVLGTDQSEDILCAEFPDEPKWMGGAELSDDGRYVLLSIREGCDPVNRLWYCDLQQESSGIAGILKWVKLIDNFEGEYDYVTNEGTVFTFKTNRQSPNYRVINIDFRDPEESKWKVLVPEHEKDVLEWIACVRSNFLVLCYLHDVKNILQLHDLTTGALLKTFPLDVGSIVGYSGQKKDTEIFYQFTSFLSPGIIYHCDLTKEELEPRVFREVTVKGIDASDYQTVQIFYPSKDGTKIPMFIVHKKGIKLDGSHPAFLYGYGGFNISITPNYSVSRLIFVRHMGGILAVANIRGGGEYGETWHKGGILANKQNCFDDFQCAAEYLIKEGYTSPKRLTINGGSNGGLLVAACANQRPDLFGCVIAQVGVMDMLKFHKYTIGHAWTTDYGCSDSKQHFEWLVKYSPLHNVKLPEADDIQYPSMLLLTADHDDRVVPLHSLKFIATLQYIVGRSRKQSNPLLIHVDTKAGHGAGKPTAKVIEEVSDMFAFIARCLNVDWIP
As to the kind of experiment: Determination of IC50- and Ki-values of PEP-inhibitors, chromogenic substrate Cbz-Gly-L-Pro-pNA. In kind it is biochemical. The note with it: for IC50 PEP (M) / pIC50: substrate 0.15 mM, HEPES buffer pH 7.6, 30° C., n.i. means no inhibition; for pKi: 4 substrate and 7 inhibitor concentrations, competitive inhibition, pH 7.6, 30° C. The protocol:
Recombinant human prolyl oligopeptidase was used for measurement. Recombinant expression was performed in E. coli under standard conditions as described elsewhere in the state of the art.
For activity measurements the chromogenic substrate Cbz-Gly-L-Pro-pNA was used in HEPES buffer pH 7.6 containing 50 mM HEPES, 200 mM NaCl, 1 mM EDTA, 1 mM DTT, 0.006% Brij35. Measurements were carried out at 30° C. Release of pNA were monitored continuously at 405 nm.
IC50 values were calculated using non-linear regression to a 4-parameter equation (Prism 4.0, GraphPad).
For Ki determination 4 substrate (0.15 mM, 0.08 mM 0.04 mM, 0.02 mM) and 7 inhibitor concentrations in an appropriate range were used. Calculations were performed by multiple non-linear regression analysis to the equation for competitive inhibition using GraFit 5.0 Software (Erithacus Software).

For test [2], the system named is basal secretion of IL-6, human glial U-343 cells. The test can be described thus: IL-6 ELISA, basal secretion of IL-6 into conditioned medium. In kind it is cell-based. The note with it: inhibitor 20 μM, 24 hours, serum-free medium, untreated = 100%, read-out: Extracellular IL-6 concentration, % of untreated cells. How it is done: To analyze basal secretion of IL-6, human glial U-343 cells were cultured in 6 well plates (1.5×10^6 cells/well, Greiner) and treated with specific PEP inhibitors as indicated (20 μM each) for 24 hours in serum-free D-MEM medium (Invitrogen). Aliquots of 40 μl conditioned medium were used to quantify the amount of secreted IL-6 by an human-specific IL-6 ELISA (Biosource) following the manufacturer's instructions. All data were obtained in quadruplicate. For the calculation of the IL-6 concentration in the cell culture medium after PEP-inhibitor treatment, the basal IL-6 concentration of the cell culture medium of untreated cell samples was set to 100%. The results of the measurement of the IL-6 concentration with PEP-inhibitor treated cells are presented as % of the untreated cell samples.
(§1) The human glioma cell line, U-343 and the human neuroblastoma cell line, SH-SY5Y were maintained in Dulbecco's modified Eagle's medium (DMEM) containing 10% fetal bovine serum (Gibco BRL, Karlsruhe, Germany) and incubated at 37° C. in a 5% CO2 atmosphere. Culture media contained in general 60 μg/ml gentamycin (Gibco BRL, Karlsruhe, Germany).
In general terms: ELISA stands for enzyme-linked immunosorbent assay.

For test [3], the system named is beta-amyloid peptides 1-40 and 1-42, U-343 and SH-SY5Y cells. The test can be described thus: Beta-amyloid ELISA, secreted beta-amyloid peptides in conditioned medium. In kind it is cell-based. The note with it: Homo sapiens; inhibitor 20 μM, 24 hours; untreated = 100%; FIG. 2: Abeta 1-42, SH-SY5Y cells; read-out: Extracellular Abeta-concentration % of control. The protocol: as §1
To quantify intracellular and extracellular concentrations of beta-amyloid peptides, 1-40 and 1-42, U-343 and SH-SY5Y cells were cultured in 6 well plates (1.5×10^6 cells/well) and treated with specific PEP inhibitors (20 μM each) for 24 hours. For quantitation of secreted beta-amyloid peptides the conditioned medium was collected and concentrated by lyophylisation. Likewise, after determination of the cell numbers/well (casy cell counter I, Schärfe System, Reutlingen, Germany), cells were lyzed with cell extraction buffer (Biosource, Solingen, Germany) according to the manufacturer's protocol. The protein concentration was determined by the method of Bradford (1976). Aliquots of 100 μl were used to quantify beta-amyloid peptides 1-40 and 1-42 in quadruplicate by ELISA (IBL, Hamburg, Germany) following the manufacturer's instructions. All obtained intracellular and extracellular concentrations were normalized to cell numbers and protein concentration, respectively.
For the calculation of the concentration of beta-amyloid peptides 1-40 and 1-42 in the cell culture medium after PEP-inhibitor treatment, the basal concentration of beta-amyloid peptides 1-40 and 1-42 in the cell culture medium of untreated cell samples was set to 100%. The results of the measurement of the concentration of beta-amyloid peptides 1-40 and 1-42 with PEP-inhibitor treated cells are presented as % of the untreated cell samples.

We go through 24 compounds from patent publication US20100273835A1, “NOVEL COMPOUNDS” (PROBIODRUG AG, priority 2007, published 2010).

One may read the pKi as the Ki on a negative log10 scale, so that one unit is a factor of ten. For orientation: pIC50 means the negative decadic logarithm of the IC50, by convention in mol/L.

Structures are written as SMILES. pIC50, pKi: −log10 of the molar value. Bounds are passed on as bounds.

`CC(C)(C)OC(=O)N[C@@H](Cc1ccc(I)cc1)C(=O)c1nccs1` [Example 23, 2-[Boc-L-(p-Iodo)Phe]Thiazole]: the “IC50 PEP (M)” value in test [1] is “n.i”. Besides, the activity at 20 µM was determined as 41% in test [2] and 210% in test [3].

On to `O=C(c1nc2ccccc2s1)[C@@H]1CCCN1C(=O)OCc1ccccc1` [Example 1, 2-[Cbz-L-Pro]Benzothiazole], for which the pKi in test [1] was 6.01. Moreover, the pIC50 in test [1] was 5.15. Besides, the activity at 20 µM in test [2] amounted to 40%; in test [3], 155%.

With `O=C(N[C@@H](Cc1ccccc1)C(=O)c1nc2ccccc2s1)OCc1ccccc1` [Example 2, 2-[Cbz-L-Phe]Benzothiazole], in test [1], the pIC50 was below 4.00. For the same compound, the activity at 20 µM turned out to be 44% in test [2] and 295% in test [3].

On to `CC(C)(C)OC(=O)N[C@@H](Cc1c[nH]c2ccccc12)C(=O)c1nccs1` [Example 17, 2-[Boc-L-Trp]Thiazole], for which, in test [1], the negative logarithm of the IC50 (pIC50) was 4.03. Moreover, the activity at 20 µM in test [2] turned out to be 38%; in test [3], 143%.

Take `CC(C)(C)OC(=O)N1CCC[C@H]1C(=O)c1nccs1` [Example 25, 2-[Boc-L-Pro]Thiazole]: in test [1], the pKi is 5.64. Besides, the pIC50 in test [1] is 5.14. Further, the activity at 20 µM turned out to be 59% in test [2] and 111% in test [3].

Turning to `CC(C)(C)OC(=O)N[C@@H](Cc1ccc([N+](=O)[O-])cc1)C(=O)c1nc2ccccc2s1` [Example 21, 2-[Boc-L-(p-NO2)Phe]Benzothiazole], in test [1], the “IC50 PEP (M)” value is “n.i”. For the same compound, the activity at 20 µM turned out to be 96% in test [2] and 311% in test [3].

Consider `O=C(/C=C/c1ccccc1)N[C@@H](Cc1ccccc1)C(=O)c1nccs1` [Example 19, 2-[Cinnamoyl-L-Phe]Thiazole], for which, in test [1], the “IC50 PEP (M)” value was “n.i”. Moreover, the results for the activity at 20 µM in test [2] and in test [3] were 58% and 230%, respectively.

For the compound `CC(C)(C)OC(=O)N[C@@H](Cc1ccc([N+](=O)[O-])cc1)C(=O)c1ccco1` [Example 12, 2-[Boc-L-(p-NO2)Phe]Furan], the pIC50 in test [1] was 4.85. The activity at 20 µM in test [2] came to 37%; in test [3], 166%.

On to `O=C(N[C@@H](Cc1ccccc1)C(=O)c1nccs1)OCc1ccccc1` [Example 5, 2-[Cbz-L-Phe]Thiazole], for which the pKi in test [1] was 8.94. The pIC50 in test [1] was 8.92. Besides, the figures for the activity at 20 µM in test [2] and in test [3] were 29% and 193%, respectively.

Regarding `O=C(N[C@@H](Cc1ccccc1)C(=O)c1ccccn1)OCc1ccccc1` [Example 7, 2-[Cbz-L-Phe]Pyridine], the pIC50 in test [1] is 4.41. For the same compound, the activity at 20 µM was 31% in test [2] and 236% in test [3].

For `C=CCOC(=O)N[C@@H](Cc1ccccc1)C(=O)c1nccs1` [Example 14, 2-[Aloc-L-Phe]Thiazole], the values for the activity at 20 µM in test [2] and in test [3] were 67% and 115%, respectively.

`CC(C)(C)OC(=O)N[C@@H](Cc1ccc([N+](=O)[O-])cc1)C(=O)c1nccs1` [Example 11, 2-[Boc-L-(p-NO2)Phe]Thiazole]: the pIC50 in test [1] was 4.60. The activity at 20 µM in test [2] stood at 62%; in test [3], 178%.

Take `C[C@H](NC(=O)OCc1ccccc1)C(=O)c1nc2ccccc2s1` [Example 6, 2-[Cbz-L-Ala]Benzothiazole]: the pIC50 in test [1] is 5.35. The activity at 20 µM stood at 36% in test [2] and 114% in test [3].

Turning to `CC(C)(C)OC(=O)N[C@@H](Cc1c[nH]c2ccccc12)C(=O)c1ccco1` [Example 18, 2-[Boc-L-Trp]Furan], the pIC50 in test [1] is 4.85. Also, the activity at 20 µM was determined as 24% in test [2] and 163% in test [3].

With `O=C(N[C@@H](Cc1ccccc1)C(=O)c1cccs1)OCc1ccccc1` [Example 3, 2-[Cbz-L-Phe]Thiophene], the pIC50 in test [1] is 6.00. For the same compound, the activity at 20 µM was determined as 23% in test [2] and 339% in test [3].

`C=CCOC(=O)N[C@@H](Cc1ccccc1)C(=O)c1nc2ccccc2s1` [Example 13, 2-[Aloc-L-Phe]Benzothiazole]: in test [1], the “IC50 PEP (M)” value is “n.i”. In addition, the activity at 20 µM was found to be 69% in test [2] and 106% in test [3].

As for `O=C(N[C@@H](Cc1ccccc1)C(=O)c1ccccc1)OCc1ccccc1` [Example 9, Cbz-L-Phe-Benzene], in test [1], the pKi was 5.80 and the pIC50 is 5.28. The activity at 20 µM in test [2] amounted to 18%. Besides, the activity at 20 µM in test [3] was 330%.

On to `O=C(N[C@@H](Cc1ccccc1)C(=O)c1cc2ccccc2s1)OCc1ccccc1` [Example 8, 2-[Cbz-L-Phe]Benzo[b]thiophene], for which the “IC50 PEP (M)” value in test [1] is “n.i”. Also, the values for the activity at 20 µM in test [2] and in test [3] were 27% and 310%, respectively.

Turning to `CC(C)(C)OC(=O)N[C@@H](Cc1ccc(I)cc1)C(=O)c1ccco1` [Example 22, 2-[Boc-L-(p-Iodo)Phe]Furan], in test [1], the “IC50 PEP (M)” value is reported as “n.i”. For the same compound, the activity at 20 µM in test [2] came out at 50%; in test [3], 232%.

`CC(C)C[C@H](NC(=O)OC(C)(C)C)C(=O)c1nc2ccccc2s1` [Example 20, 2-[Boc-L-Leu]Benzothiazole]: the activity at 20 µM came out at 63% in test [2] and 375% in test [3].

For the compound `O=C(N[C@H](Cc1ccccc1)C(=O)c1nccs1)OCc1ccccc1` [Example 4, 2-[Cbz-D-Phe]Thiazole], in test [1], the “IC50 PEP (M)” value is listed as “n.i”. Besides, the activity at 20 µM in test [2] worked out at 44%; in test [3], 172%.

Regarding `C[C@H](NC(=O)OCc1ccccc1)C(=O)c1nccs1` [Example 10, 2-[Cbz-L-Ala]Thiazole], in test [1], the pKi was 5.64 and the pIC50 was 5.15. The activity at 20 µM in test [2] came to 78%. Moreover, the activity at 20 µM in test [3] came to 107%.

With `C=CCOC(=O)N[C@@H](Cc1ccccc1)C(=O)c1ccco1` [Example 15, 2-[Aloc-L-Phe]Furan], the pIC50 in test [1] was 5.00. Further, the values for the activity at 20 µM in test [2] and in test [3] were 78% and 116%, respectively.

In the case of `CC(C)(C)OC(=O)N1CCC[C@H]1C(=O)c1nc2ccccc2s1` [Example 24, 2-[Boc-L-Pro]Benzothiazole], the activity at 20 µM in test [2] is 26%; in test [3], 136%.
